In patent US8252737B2, “Antimicrobial peptides and methods of use” (priority 2004, dated 2012):
In brackets after ≈: the same amount, converted by molar mass. Where two headings read alike, the source gives them in different places.

Key:
[1] = Experimental: (§1) The geometric mean MIC values from 6 microbial strains in this table were calculated to provide an overall evaluation of antimicrobial activity against gram-negative bacteria.
(§2) Measurement of Antimicrobial Activity—Minimal inhibitory concentrations (MICs) were determined using a standard microtiter dilution method in LB (Luria-Bertani) no-salt medium (10 g of tryptone and 5 g of yeast extract per liter). Briefly, cells were grown overnight at 37° C. in LB and diluted in the same medium. […] Plates were incubated at 37° C. for 24 hours and MICs determined as the lowest peptide concentration that inhibited growth. Alternatively, minimal inhibitory concentrations were determined using a standard microtiter dilution method in a Mueller-Hinton (MH) medium. Briefly, cells were grown overnight at 37° C. in MH broth and diluted in the same medium. […] Plates were incubated at 37° C. for 24 hours and MICs determined as the lowest peptide concentration that inhibited growth. However, for MIC determination of Pseudomonas aeruginosa clinical isolates, brain heart infusion (BH1) medium was used instead of MH broth. In addition, the bacteria were diluted to a final inoculum of 1×10^6 colony-forming units/ml.

[2] = system: E. coli (UB 1005 wt and DC2 abs); settings: for MIC (μg/ml) E. coli C500 abs: antibiotic sensitive strain; for MIC (μg/ml) E. coli C498 wt: wild-type lab strain
Experimental: as §1, §2

[3] = system: S. typhimurium C610 abs
Experimental: as §1, §2

[4] = system: P. aeruginosa H187 wt
Experimental: as §1, §2

[5] = system: Corynebacterium xerosis
[6] = system: human erythrocytes; experiment: Hemolytic activity (MHC), Protocol B, 18 hours; settings: for MHC (μg/ml) hRBC: maximal peptide concentration with no hemolysis after 18 hours
How it was run: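 Hemolysis of 1% human erythrocytes in phosphate-buffered saline by 2-fold diluted D-peptides, incubated 18 h at 37 °C; hemoglobin release read spectrophotometrically. Value is the maximal peptide concentration producing no hemolysis, relative to erythrocytes without peptide.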

[7] = system: human red blood cells; experiment: Hemolysis time study (0-8 hours, 8-500 μg/ml); settings: 500 μg/ml, after 1 hour incubation
Experimental: The percent hemolysis of cells was determined spectrophotometrically by comparison with the complete hemolysis of cells in water.
[…] Peptide samples were diluted 2 fold in order to determine the concentration that produced no hemolysis. […] Hemoglobin release was determined spectrophotometrically at 562 nm. The hemolytic titer was the highest 2-fold dilution of the peptide that still caused release of hemoglobin from erythrocytes. The control for no release of hemoglobin was a sample of 1% erythrocytes without any peptide added. […] Peptide samples were diluted 2 fold in order to determine the concentration that produced no hemolysis. […] Hemoglobin release was determined spectrophotometrically at 570 nm. The hemolytic titer was the highest 2-fold dilution of the peptide that still caused release of hemoglobin from erythrocytes. The control for no release of hemoglobin was a sample of 1% erythrocytes without any peptide added.

[8] = CD temperature denaturation study of peptide V681; format: physicochemical; settings: 50% TFE in 0.05% aq. TFA (pH 2); 50% of α-helical structure denatured
Experimental: We next used temperature profiling during RP-HPLC to determine the self-association ability of the various analogs of V681 which would occur through interaction of the non-polar faces of these amphipathic α-helices. […] In order to investigate the stability of V681 in a hydrophobic environment, we carried out a temperature denaturation study in solution, as monitored by circular dichroism spectroscopy. […]
CD Temperature Denaturation Study of Peptide V681—The native peptide V681 was dissolved in 0.05% aqueous TFA containing 50% TFE, pH 2, loaded into a 0.02 cm fused silica cell and peptide ellipticity scanned from 190 to 250 nm at temperatures of 5, 15, 25, 35, 45, 55, 65 and 80° C. […] ([θ]t−[θ]u)/([θ]5−[θ]u) was calculated and plotted against temperature in order to obtain the thermal melting profiles, where [θ]5 and [θ]u represent the molar ellipticity values for the fully folded and fully unfolded species, respectively. [θ]u was determined in the presence of 8M urea with a value of 1500 deg cm^2 dmol^−1 to represent a totally random coil state (31). The melting temperature (Tm) was calculated as the temperature at which the α-helix was 50% denatured (([θ]t−[θ]u)/([θ]5−[θ]u)=0.5) and the values were taken as a measure of α-helix stability.

[9] = maximal peptide concentration producing no hemolysis after 18 hours, 37° C.

Row | SMILES | MIC (μg/ml) St C587 wt ([1]; C610 abs) [µg/mL] | MIC (μg/ml) E. coli C500 abs [2] [µg/mL] | MIC (μg/ml) E. coli C498 wt [2] [µg/mL] | MIC (μg/ml) St C610 abs ([3]; C610 abs) [µg/mL] | MIC (μg/ml) Pa H188 abs [4] [µg/mL] | MIC (μg/ml) Pa H187 wt ([4]; H187 wt) [µg/mL] | MIC (μg/ml) C. xerosis C875 wt [5] [µg/mL] | Hemolytic activity Fold [6] | Hemolytic activity MHC [6, 9] [µg/mL] | MHC (μg/ml) hRBC ([6]; Table 11) [µg/mL] | MHC (μg/ml) hRBC ([6]; Table 12) [µg/mL] | Hemolytic activity MHC ([6]; red cells of human, 18 h) [µg/mL] | MIC (μg/ml) St C587 wt ([1]; Salmonella typhimurium wild-type lab strain) [µg/mL] | MIC (μg/ml) St C610 abs ([3]; Salmonella typhimurium antibiotic sensitive strain) [µg/mL] | MIC (μg/ml) Pa H188 abs ([4]; Pseudomonas aeruginosa antibiotic sensitive strain) [µg/mL] | MIC (μg/ml) Pa H187 wt ([4]; Pseudomonas aeruginosa wild-type lab strain) [µg/mL] | Hemolytic activity Fold ([6]; fold decrease in hemolytic activity compared to V681, 18 hours) | Hemolytic activity MHC ([6]; maximal peptide concentration showing no hemolysis after 18 hours, hRBC, Table 14) [µg/mL] | hemolysis of human red blood cells [7] [%] | transition temperature Tm [8] [°C]
1 | CC[C@H](C)[C@H](NC(=O)[C@H](C)NC(=O)[C@H](CCCCN)NC(=O)[C@H](CC(C)C)NC(=O)[C@H](C)NC(=O)[C@@H](NC(=O)[C@H](Cc1c[nH]cn1)NC(=O)[C@H](CC(C)C)NC(=O)[C@@H](NC(=O)[C@@H](NC(=O)[C@H](CCCCN)NC(=O)[C@@H](C)NC(=O)[C@H](C)NC(=O)[C@H](CO)NC(=O)[C@H](CCCCN)NC(=O)[C@H](Cc1ccccc1)NC(=O)[C@@H](NC(=O)[C@H](CCCCN)NC(=O)[C@H](CC(C)C)NC(=O)[C@H](Cc1ccccc1)NC(=O)[C@H](CO)NC(=O)[C@H](CCCCN)NC(=O)[C@H](Cc1c[nH]c2ccccc12)NC(=O)[C@H](CCCCN)NC(C)=O)[C@@H](C)O)[C@@H](C)O)C(C)C)[C@@H](C)O)C(=O)N[C@@H](CO)C(=O)N[C@@H](CO)C(N)=O [NAD] | 12.5 (≈ 4.26 µM) | 1.6 (≈ 0.545 µM) | 3.1 (≈ 1.06 µM) | 3.1 (≈ 1.06 µM) | 1.6 (≈ 0.545 µM) | 3.1 (≈ 1.06 µM) | 1.6 (≈ 0.545 µM) | 4 | 31.3 | 31.3 | 31.3 | 31.3 |  |  |  |  |  |  |  | 
2 | CC[C@H](C)[C@H](NC(=O)[C@H](C)NC(=O)[C@H](CCCCN)NC(=O)[C@H](CC(C)C)NC(=O)[C@H](C)NC(=O)[C@@H](NC(=O)[C@H](Cc1cnc[nH]1)NC(=O)[C@H](CC(C)C)NC(=O)[C@@H](NC(=O)[C@@H](NC(=O)[C@H](CCCCN)NC(=O)[C@H](CCCCN)NC(=O)[C@H](C)NC(=O)[C@H](CO)NC(=O)[C@H](CCCCN)NC(=O)[C@H](Cc1ccccc1)NC(=O)[C@@H](NC(=O)[C@H](CCCCN)NC(=O)[C@H](CC(C)C)NC(=O)[C@H](Cc1ccccc1)NC(=O)[C@H](CO)NC(=O)[C@H](CCCCN)NC(=O)[C@H](Cc1c[nH]c2ccccc12)NC(=O)[C@H](CCCCN)NC(C)=O)[C@@H](C)O)[C@@H](C)O)C(C)C)[C@@H](C)O)C(=O)N[C@@H](CO)C(=O)N[C@@H](CO)C(N)=O [NKL] |  | 3.1 (≈ 1.04 µM) | 3.1 (≈ 1.04 µM) |  |  |  | 1.6 (≈ 0.535 µM) |  | 250.0 | 250.0 | 250.0 |  | 6.3 (≈ 2.11 µM) | 3.1 (≈ 1.04 µM) | 3.1 (≈ 1.04 µM) | 6.3 (≈ 2.11 µM) | 32 | 250.0 |  | 
3 | CC[C@H](C)[C@H](NC(=O)[C@H](C)NC(=O)[C@H](CCCCN)NC(=O)[C@H](CC(C)C)NC(=O)[C@H](C)NC(=O)[C@@H](NC(=O)[C@H](Cc1c[nH]cn1)NC(=O)[C@H](CC(C)C)NC(=O)[C@@H](NC(=O)[C@@H](NC(=O)[C@H](CCCCN)NC(=O)[C@@H](NC(=O)[C@H](C)NC(=O)[C@H](CO)NC(=O)[C@H](CCCCN)NC(=O)[C@H](Cc1ccccc1)NC(=O)[C@@H](NC(=O)[C@H](CCCCN)NC(=O)[C@H](CC(C)C)NC(=O)[C@H](Cc1ccccc1)NC(=O)[C@H](CO)NC(=O)[C@H](CCCCN)NC(=O)[C@H](Cc1c[nH]c2ccccc12)NC(=O)[C@H](CCCCN)NC(C)=O)[C@@H](C)O)C(C)C)[C@@H](C)O)C(C)C)[C@@H](C)O)C(=O)N[C@@H](CO)C(=O)N[C@@H](CO)C(N)=O [Peptide V681, reference compound] | 12.5 (≈ 4.22 µM) | 3.1 (≈ 1.05 µM) | 6.3 (≈ 2.13 µM) | 3.1 (≈ 1.05 µM) | 3.1 (≈ 1.05 µM) | 6.3 (≈ 2.13 µM) | 3.1 (≈ 1.05 µM) |  | 7.8 | 7.8 | 7.8 |  |  |  |  |  |  |  | 100 | 79.3
